This note sets out measurements from article PMC7751940, “Synthesis, characterization and evaluation of antidengue activity of enantiomeric Schiff bases derived from S-substituted dithiocarbazate” (Turkish Journal of Chemistry, 2020).

Like-named read-outs stand apart in the source and are kept apart here.

Series [1] relates to DENV 2. Description: Foci forming unit reduction assay (FFURA, secondary evaluation). The format is cell-based, dengue virus type 2 (DENV 2). The settings on record: for Selectivity index CC50/IC50: CC50 (Vero, MTT) / IC50 (FFURA, DENV 2); for reduction in the number of foci: three different dilutions; for IC50: Dengue virus, 96 h, read-out: IC50 ± SE. How it is done: (§1) Aedes albopictus clone C6/36 cells were maintained to propagate the dengue virus type 2 (DENV 2); African green monkey ( Chlorocebus sp.) kidney Vero cells were grown for antiviral analysis. Both cells were grown in Eagle’s Minimum Essential Medium (EMEM) (Biowest LLC, Riverside, MO, USA) with 10% Fetal Bovine Serum (FBS) (Biowest LLC).
Antiviral activity was quantitatively validated by measuring the reduction in the number of DENV infectious foci after 4 days of treatment. DENV 2 infected Vero cells were treated with different antiviral dilutions supplemented with 2% FBS and 1.5% carboxymethyl cellulose (CMC). Virus foci were stained and visualized according to the published protocol. The number of foci was counted through stereomicroscope and virus titer was stated as foci forming unit (FFU). To calculate the antiviral activity of antidengue compounds, the percentage reduction in foci (%RF) was calculated between the treated, and untreated wells maintained in parallel. The assay was repeated three times, dose-response curves were plotted and half […] inhibitory concentration (IC50) and selectivity index (SI) were calculated.

A short description of the next series: MTT cytotoxicity assay. The settings on record: African green monkey (Chlorocebus sp.), Vero cells (kidney), four days incubation, Table 4. The format is cell-based. As to the method:
as §1
The 96-well plates were seeded with 100 µL of Vero cell suspension at a density of 1 × 10^5 cells / mL and the next day were treated with different dilutions of the synthesized compounds. Control wells were treated with only the vehicle media used to prepare the antiviral dilutions. Plates were incubated for four days at 37 °C. Following the addition of 15 μL of MTT (Sigma-Aldrich Corp., St. Louis, MO, USA) solution into each well, the plates were incubated at 37 °C for another 4 h. Subsequently, the medium was carefully aspirated from all the wells and 100 μL of DMSO was added to each well [26]. The optical density (OD) of the wells was measured at 570 nm using a 96-well plate reader (Tecan Group AG, Männedorf, Switzerland). The percentage cell viability was calculated against the untreated controls. Dose-response curves were plotted. Half maximal cytotoxic concentration (CC50) was calculated using Graph Pad Prism for Windows, Version 5 (GraphPad Software Inc., San Diego, CA, USA).
On the technique in general: Tetrazolium assays rely on reduction of a dye to a coloured formazan, in cell work by metabolically active cells.

The test system of series [2] is DENV 2. Briefly: CPE reduction-based antiviral assay (primary evaluation). It counts as cell-based, dengue virus type 2 (DENV 2). More on the design: key: ++++ for total reduction; +++ for 75% reduction; ++ for 50% reduction; + for less than 50% reduction; -- for no reduction. The settings on record: DENV 2-infected Vero cells, treated after 1 h viral adsorption, graded per Kudi and Myint. As to the method:
as §1
Ribavirin tablets (Copegus, 200 mg, Genentech, Inc., South San Francisco, CA, USA) were purchased and stock solutions were stored. Dilutions were prepared in 2% FBS (maintenance media) at the time of assay. TCID50 assay was employed to measure the titer of the virus stocks for antiviral evaluation following standard methods. The viral CPE was observed on the third and fourth days and observations were recorded based on the Reed–Muench method.
Plates were seeded with Vero cell suspension (100 µL) at a density of 1 × 10^5 cells/mL one day before the wells were treated with TCID50 (100 µL) dilution of the DENV 2 stock and untreated control wells were maintained in parallel. After 1 h of viral adsorption, unbound viruses were washed and different antiviral dilutions were added. These plates were further incubated for 4 more days and were observed daily. Observations were recorded on the third and fourth days. The wells were marked for CPE reduction according to the grading system defined by Kudi and Myint.

[3] abbreviates: DENV 2 infected Vero cells, foci reduction after 4 days of treatment.

With `CC1(C)[C@@H]2CC[C@@]1(C)/C(=N/NC(=S)SCc1ccccc1)C2` [SBRCM, Benzyl (E)-2-((1R,4R)-1,7,7-trimethylbicyclo[2.2.1]heptan-2-ylidene)hydrazine-1-carbodithioate], the “Selectivity index CC50/IC50” value in the series with DENV 2 [1] was found to be 10.4. The “reduction in the number of foci” value with DENV 2 [1] (DENV 2 infected Vero cells) is on record as “reduction in the number of foci appearance”. Also, the IC50 (usually the concentration that inhibits the measured activity by half) with DENV 2 [1] (setting [3]) turned out to be 7.8 ± 4.5 µM. Moreover, it took 81.7 ± 4.4 µM to reach half-maximal cytotoxicity in “MTT cytotoxicity assay” (CC50 at 4 days). Also, the CPE reduction result with DENV 2 [2] is listed as “++ (++ for 50% reduction)”.
For `CSC(=S)N/N=C1\C[C@@H]2CC[C@@]1(C)C2(C)C` [SMSCM, Methyl (E)-2-((1S,4S)-1,7,7-trimethylbicyclo[2.2.1]heptan-2-ylidene)hydrazine-1-carbodithioate], the “Selectivity index CC50/IC50” value in the series with DENV 2 [1] worked out at 14.3. The “reduction in the number of foci” value in the series with DENV 2 [1] (DENV 2 infected Vero cells) was “reduction in the number of foci appearance”. For the same molecule, in the series with DENV 2 [1] (setting [3]), the IC50 came to 6.2 ± 3.2 µM. Besides, in “MTT cytotoxicity assay”, half-maximal cytotoxicity (CC50 at 4 days) was put at 88.7 ± 2 µM. Further, the CPE reduction entry in the series with DENV 2 [2] is “++ (++ for 50% reduction)”.
As to `C=C(C)[C@@H]1CC=C(C)/C(=N/NC(=S)SC)C1` [SMRCV, Methyl (R,E)-2-(2-methyl-5-(prop-1-en-2-yl)cyclohex-2-en-1-ylidene)hydrazine-1-carbodithioate], it took 31.1 ± 8 µM to reach half-maximal cytotoxicity in the series “MTT cytotoxicity assay” (CC50 at 4 days). Also, the CPE reduction entry in the series on DENV 2 [2] is recorded as “--”.
Regarding `CSC(=S)N/N=C1\C(=O)[C@@]2(C)CC[C@@H]1C2(C)C` [SMSCQ, Methyl (Z)-2-((1R,4S)-4,7,7-trimethyl-3-oxobicyclo[2.2.1]heptan-2-ylidene)hydrazine-1-carbodithioate], the “reduction in the number of foci” value in the series on DENV 2 [1] (DENV 2 infected Vero cells) is given as “reduction in the number of foci appearance”. Moreover, the IC50 with DENV 2 [1] (Vero) was 6.8 ± 2.8 µM. Besides, it took 69.2 ± 5.9 µM to reach half-maximal cytotoxicity in “MTT cytotoxicity assay” (CC50 at 4 days). Moreover, the CPE reduction result in the series on DENV 2 [2] was “+ (+ for less than 50% reduction)”.
As for `CSC(=S)N/N=C1\C[C@H]2CC[C@]1(C)C2(C)C` [SMRCM, Methyl (E)-2-((1R,4R)-1,7,7-trimethylbicyclo[2.2.1]heptan-2-ylidene)hydrazine-1-carbodithioate], the “Selectivity index CC50/IC50” value in the series with DENV 2 [1] is reported as 12.8. Further, the “reduction in the number of foci” value with DENV 2 [1] (DENV 2 infected Vero cells) is on record as “reduction in the number of foci appearance”. Moreover, the IC50 with DENV 2 [1] (setting [3]) worked out at 6.9 ± 1.2 µM. Moreover, the CC50 (usually the concentration at which the toxic effect on the cells reaches its halfway point) at 4 days in the series “MTT cytotoxicity assay” was determined as 88.4 ± 3.8 µM. The CPE reduction entry with DENV 2 [2] was “++ (++ for 50% reduction)”.
Consider `C=C(C)[C@@H]1CC=C(C)/C(=N/NC(=S)SCc2ccccc2)C1` [SBRCV, Benzyl (R,E)-2-(2-methyl-5-(prop-1-en-2-yl)cyclohex-2-en-1-ylidene)hydrazine-1-carbodithioate], for which half-maximal cytotoxicity in the series “MTT cytotoxicity assay” (CC50 at 4 days) was put at 28.5 ± 3.9 µM. For the same molecule, the CPE reduction entry with DENV 2 [2] is on record as “+ (+ for less than 50% reduction)”.
Molecule `C=C(C)[C@H]1CC=C(C)/C(=N/NC(=S)SCc2ccccc2)C1` [SBSCV, Benzyl (S,E)-2-(2-methyl-5-(prop-1-en-2-yl)cyclohex-2-en-1-ylidene)hydrazine-1-carbodithioate] returned a half-maximal cytotoxic concentration (CC50) at 4 days in the series “MTT cytotoxicity assay” of 29.2 ± 6.4 µM. In addition, the CPE reduction entry with DENV 2 [2] is on record as “+ (+ for less than 50% reduction)”.
`C=C(C)[C@H]1CC=C(C)/C(=N/NC(=S)SC)C1` [SMSCV, Methyl (S,E)-2-(2-methyl-5-(prop-1-en-2-yl)cyclohex-2-en-1-ylidene)hydrazine-1-carbodithioate] returned a CC50 at 4 days in the series “MTT cytotoxicity assay” of 24.5 ± 9.2 µM. Moreover, in the series with DENV 2 [2], the CPE reduction entry is listed as “--”.
Take `CC1(C)[C@H]2CC[C@]1(C)/C(=N/NC(=S)SCc1ccccc1)C2` [SBSCM, Benzyl (E)-2-((1S,4S)-1,7,7-trimethylbicyclo[2.2.1]heptan-2-ylidene)hydrazine-1-carbodithioate]: in the series with DENV 2 [1], the “Selectivity index CC50/IC50” value turned out to be 12.8. Besides, the “reduction in the number of foci” value in the series on DENV 2 [1] (DENV 2 infected Vero cells) is given as “reduction in the number of foci appearance”. Besides, the IC50 with DENV 2 [1] (setting [3]) turned out to be 6.8 ± 2.3 µM. Half-maximal cytotoxicity in the series “MTT cytotoxicity assay” (CC50 at 4 days) was put at 87.2 ± 5.9 µM. Besides, in the series on DENV 2 [2], the CPE reduction result is “++ (++ for 50% reduction)”.
